Where a SMILES comes first, the peptide text is derived from it. Bridges are numbered along the chain shown (N, C = ends). [ ]: non-standard residue; d: D form. The star is where a group is joined. ξ: configuration not given here. Phe(3-CF3) = N[C@@H](Cc1cccc(C(F)(F)F)c1)C(=O)O; Phe(4-CF3) = N[C@@H](Cc1ccc(C(F)(F)F)cc1)C(=O)O; Phe(4-COOH) = N[C@@H](Cc1ccc(C(=O)O)cc1)C(=O)O; Bip = N[C@@H](Cc1ccc(-c2ccccc2)cc1)C(=O)O; Phe(3-Me) = Cc1cccc(C[C@H](N)C(=O)O)c1; NH(CH2)12COOH = O=C(O)CCCCCCCCCCCCN*; Val(3-OH) = CC(C)(O)[C@H](N)C(=O)O; Pip(4-aza) = O=C(O)[C@@H]1CNCCN1; hArg = N=C(N)NCCCC[C@H](N)C(=O)O; 4Pal = N[C@@H](Cc1ccncc1)C(=O)O; Cha = N[C@@H](CC1CCCCC1)C(=O)O; Cit = NC(=O)NCCC[C@H](N)C(=O)O; Ile(3ξ) = CCC(C)[C@H](N)C(=O)O; Thr(3ξ) = CC(O)[C@H](N)C(=O)O; 12Ado = NCCCCCCCCCCCC(=O)O; Carboxymethyl = O=C(O)C*; NMeA = CN[C@@H](C)C(=O)O; Orn = NCCC[C@H](N)C(=O)O; Aun = NCCCCCCCCCCC(=O)O; Dab = NCC[C@H](N)C(=O)O; Abu = CC[C@H](N)C(=O)O; Dap = NC[C@H](N)C(=O)O; AEEA = NCCOCCOCC(=O)O

T1 sequence (Q15116 25-288): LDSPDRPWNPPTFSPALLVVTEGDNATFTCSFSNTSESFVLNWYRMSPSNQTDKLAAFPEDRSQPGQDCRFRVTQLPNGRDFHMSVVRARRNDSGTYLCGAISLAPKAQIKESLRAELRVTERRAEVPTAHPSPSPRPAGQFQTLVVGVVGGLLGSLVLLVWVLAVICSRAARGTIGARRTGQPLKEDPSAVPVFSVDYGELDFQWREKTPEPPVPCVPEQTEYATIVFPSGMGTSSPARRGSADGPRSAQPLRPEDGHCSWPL

The first test concerns the target T1, PD-1/PD-L1 interaction (PE-labeled human PD-L1-Ig binding to Jurkat cell line over-expressing human PD-1) (Homo sapiens, UniProt Q15116).
T1 construct: expressed in transfected cells; host or cells: Jurkat
As to the kind of experiment: Jurkat-PD-1 Cell Binding High-Content Screening Assay (CBA). The following applies: Jurkat-hPD-1 cells, PE-labeled PD-L1-Ig 20 nM final; read-out: Jurkat HPD1 PDL1 IC50. The method in brief: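 Compound is added first to the PD-1-expressing Jurkat cells and held 2 h at 37 °C in serum-containing DMEM. The fluorescent PD-L1 fusion follows at 20 nM final for 1 h. Fixed, Hoechst-stained cells are then imaged for bound label.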
By IC50 is commonly meant the concentration needed to halve the response being measured. Regarding `Cc1cccc(C[C@@H]2NC(=O)[C@H](CC(=O)O)NC(=O)[C@H](Cc3ccc(OCC(=O)O)cc3)NC(=O)[C@H](C(C)O)NC(=O)CSC[C@@H](C(=O)N[C@H](CC(N)=O)C(=O)NCCCCCCCCCCC(=O)O)NC(=O)[C@H](C(C)O)NC(=O)[C@H](C(C)C)NC(=O)[C@H](CC3CCCCC3)NC(=O)[C@H](CCN)NC(=O)[C@@H](CC(C)C)NC(=O)[C@H](C)N(C)C(=O)[C@H](CCCNC(N)=O)NC(=O)[C@H](Cc3ccc(-c4ccccc4)cc3)NC(=O)[C@H](Cc3ccccc3)NC2=O)c1` (stereo partly drawn) [Example 2315] ({CH2CO}-[Thr(3ξ)]Y(Carboxymethyl)D[Phe(3-Me)]F[Bip][Cit][NMeA][dL][Dab][Cha]V[Thr(3ξ)]C[dN][Aun]-OH; thioether N-14), the IC50 stood at 9.7 nM.
On the same count and under the same terms, the same measure for `CC(C)C[C@@H]1NC(=O)[C@H](Cc2c[nH]c3ccccc23)NC(=O)[C@H](CC(=O)O)NC(=O)[C@H](Cc2ccc(C(=O)O)cc2)NC(=O)[C@H](Cc2ccc(OCC(=O)O)cc2)NC(=O)CSC[C@@H](C(=O)NCCOCCOCC(=O)NCCCCCCCCCCC(=O)O)NC(=O)[C@H](CCCNC(N)=O)NC(=O)[C@H](C(C)(C)O)NC(=O)[C@H](CC2CCCCC2)NC(=O)[C@H](CCN)NC(=O)[C@@H](CC(C)C)NC(=O)[C@H](C)N(C)C(=O)[C@H](C(C)C)NC(=O)[C@H](Cc2ccc(-c3ccccc3)cc2)NC1=O` [Example 1111] ({CH2CO}-Y(Carboxymethyl)[Phe(4-COOH)]DWL[Bip]V[NMeA][dL][Dab][Cha][Val(3-OH)][Cit]C[AEEA][Aun]-OH; thioether N-14): 9.1 nM; for `CC(C)C[C@H]1NC(=O)[C@H](C)N(C)C(=O)[C@H](CCC(N)=O)NC(=O)[C@H](Cc2ccc(-c3ccccc3)cc2)NC(=O)[C@H](Cc2ccc(C(=O)O)cc2)NC(=O)[C@H](Cc2cccc(C(F)(F)F)c2)NC(=O)[C@H](CC(=O)O)NC(=O)[C@H](Cc2ccc(OCC(=O)O)cc2)NC(=O)[C@H](Cc2ccc(C(=O)O)cc2)NC(=O)CSC[C@@H](C(=O)N[C@@H](CCN)C(=O)NCCCCCCCCCCCCC(=O)O)NC(=O)[C@H](CO)NC(=O)[C@H](C(C)(C)O)NC(=O)[C@H](CC2CCCCC2)NC(=O)[C@H](CCN)NC1=O` [Example 1144] ({CH2CO}-[Phe(4-COOH)]Y(Carboxymethyl)D[Phe(3-CF3)][Phe(4-COOH)][Bip]Q[NMeA][dL][Dab][Cha][Val(3-OH)]SC[Dab]-{NH(CH2)12COOH}; thioether N-14): 14 nM.
In the case of `CCC(C)[C@@H]1NC(=O)[C@H](Cc2ccc(-c3ccccc3)cc2)NC(=O)[C@H](C(C)C)NC(=O)[C@H](Cc2cccc(C)c2)NC(=O)[C@H](CC(=O)O)NC(=O)[C@H](Cc2ccc(OCC(=O)O)cc2)NC(=O)[C@H](C(C)O)NC(=O)CSC[C@@H](C(=O)NCCOCCOCC(=O)NCCCCCCCCCCC(=O)O)NC(=O)[C@H](C(C)O)NC(=O)[C@H](C(C)C)NC(=O)[C@H](CC2CCCCC2)NC(=O)[C@H](CCN)NC(=O)[C@@H](CC(C)C)NC(=O)[C@H](C)N(C)C1=O` (stereo partly drawn) [Example 2328] ({CH2CO}-[Thr(3ξ)]Y(Carboxymethyl)D[Phe(3-Me)]V[Bip][Ile(3ξ)][NMeA][dL][Dab][Cha]V[Thr(3ξ)]C[AEEA][Aun]-OH; thioether N-14), the IC50 worked out at 19.5 nM.
Regarding `CC[C@H](C)[C@@H]1NC(=O)[C@H](Cc2cccc(C)c2)NC(=O)[C@H](CC(=O)O)NC(=O)[C@H](Cc2ccc(C(=O)O)cc2)NC(=O)[C@H](CCN)NC(=O)CSC[C@@H](C(=O)N[C@@H](CCN)C(=O)NCCCCCCCCCCC(=O)O)NC(=O)[C@H](CO)NC(=O)[C@H](C(C)(C)O)NC(=O)[C@H](CC2CCCCC2)NC(=O)[C@H](CCN)NC(=O)[C@@H](CC(C)C)NC(=O)[C@H](C)N(C)C(=O)[C@H](Cc2ccc(OCC(=O)O)cc2)NC(=O)[C@H](Cc2ccc(-c3ccccc3)cc2)NC1=O` [Example 1299] ({CH2CO}-[Dab][Phe(4-COOH)]D[Phe(3-Me)]I[Bip]Y(Carboxymethyl)[NMeA][dL][Dab][Cha][Val(3-OH)]SC[Dab][Aun]-OH; thioether N-14), the IC50 is 11.6 nM.
`CC[C@@H]1NC(=O)[C@H](C(C)C)NC(=O)[C@H](CC2CCCCC2)NC(=O)[C@H](CCN)NC(=O)[C@@H](CC(C)C)NC(=O)[C@H](C)N(C)C(=O)[C@H](C(C)C)NC(=O)[C@H](Cc2ccc(-c3ccccc3)cc2)NC(=O)[C@H](CC(C)C)NC(=O)[C@H](Cc2c[nH]c3ccccc23)NC(=O)[C@H](CC(=O)O)NC(=O)[C@H](Cc2ccc(OCC(=O)O)cc2)NC(=O)[C@H](CCCCNC(=N)N)NC(=O)CSC[C@@H](C(=O)NCC(=O)NCCOCCOCC(=O)N[C@@H](CCCN)C(=O)NCCCCCCCCCCCC(=O)O)NC1=O` [Example 2124] ({CH2CO}-[hArg]Y(Carboxymethyl)DWL[Bip]V[NMeA][dL][Dab][Cha]V[Abu]CG[AEEA][Orn][12Ado]-OH; thioether N-14): the IC50 came out at 17 nM.
Take `CC(C)C[C@@H]1NC(=O)[C@H](Cc2c[nH]c3ccccc23)NC(=O)[C@H](CC(=O)O)NC(=O)[C@H](Cc2ccncc2)NC(=O)[C@H](Cc2ccc(OCC(=O)O)cc2)NC(=O)CSC[C@@H](C(=O)N2CCNC[C@H]2C(=O)NCCCCCCCCCCC(=O)O)NC(=O)[C@H](C(C)O)NC(=O)[C@H](C(C)C)NC(=O)[C@H](CC2CCCCC2)NC(=O)[C@H](CCN)NC(=O)[C@@H](CC(C)C)NC(=O)[C@H](C)N(C)C(=O)[C@H](C(C)C)NC(=O)[C@H](Cc2ccc(-c3ccccc3)cc2)NC1=O` (stereo partly drawn) [Example 1221] ({CH2CO}-Y(Carboxymethyl)[4Pal]DWL[Bip]V[NMeA][dL][Dab][Cha]V[Thr(3ξ)]C[Pip(4-aza)][Aun]-OH; thioether N-14): the IC50 was 121 nM.
On to `CC(C)C[C@@H]1NC(=O)[C@H](Cc2c[nH]c3ccccc23)NC(=O)[C@H](CC(=O)O)NC(=O)[C@H](Cc2ccc(C(=O)O)cc2)NC(=O)[C@H](Cc2ccc(OCC(=O)O)cc2)NC(=O)CSC[C@@H](C(=O)NCC(=O)N[C@@H](CN)C(=O)NCC(=O)NCCCCCCCCCCC(=O)O)NC(=O)[C@H](CO)NC(=O)[C@H](C(C)C)NC(=O)[C@H](CC2CCCCC2)NC(=O)[C@H](CCN)NC(=O)[C@@H](CC(C)C)NC(=O)[C@H](C)N(C)C(=O)[C@H](C(C)C)NC(=O)[C@H](Cc2ccc(-c3ccccc3)cc2)NC1=O` [Example 1028] ({CH2CO}-Y(Carboxymethyl)[Phe(4-COOH)]DWL[Bip]V[NMeA][dL][Dab][Cha]VSCG[Dap]G[Aun]-OH; thioether N-14), for which the concentration for half-maximal inhibition (IC50) was found to be 14.7 nM.

The same test, now with this note: PE-labeled PD-L1-Ig 20 nM final, Jurkat-hPD-1 cells; read-out: Jurkat HPD1 PDL1 IC50.
Take `CC(C)C[C@H]1NC(=O)[C@H](C)N(C)C(=O)[C@H](Cc2ccc(C(=O)O)cc2)NC(=O)[C@H](Cc2ccc(-c3ccccc3)cc2)NC(=O)[C@H](Cc2ccc(C(=O)O)cc2)NC(=O)[C@H](Cc2cccc(C(F)(F)F)c2)NC(=O)[C@H](CC(=O)O)NC(=O)[C@H](Cc2ccc(C(=O)O)cc2)NC(=O)[C@H](C(C)O)NC(=O)CSC[C@@H](C(=O)N[C@@H](CCN)C(=O)NCCOCCOCC(=O)NCCCCCCCCCCCCC(=O)O)NC(=O)[C@H](CC(=O)O)NC(=O)[C@H](C(C)C)NC(=O)[C@H](CC2CCCCC2)NC(=O)[C@H](CCN)NC1=O` (stereo partly drawn) [Example 2612] ({CH2CO}-[Thr(3ξ)][Phe(4-COOH)]D[Phe(3-CF3)][Phe(4-COOH)][Bip][Phe(4-COOH)][NMeA][dL][Dab][Cha]VDC[Dab][AEEA]-{NH(CH2)12COOH}; thioether N-14): the IC50 was 62.9 nM.
In the case of `Cc1cccc(C[C@@H]2NC(=O)[C@H](CC(=O)O)NC(=O)[C@H](Cc3ccc(C(=O)O)cc3)NC(=O)[C@H](Cc3ccncc3)NC(=O)CSC[C@@H](C(=O)N[C@@H](CCN)C(=O)NCCOCCOCC(=O)NCCOCCOCC(=O)NCCCCCCCCCCC(=O)O)NC(=O)[C@H](CCC(=O)O)NC(=O)[C@H](C(C)(C)O)NC(=O)[C@H](CC3CCCCC3)NC(=O)[C@H](CCN)NC(=O)[C@@H](CC(C)C)NC(=O)[C@H](C)N(C)C(=O)[C@H](Cc3ccc(C(=O)O)cc3)NC(=O)[C@H](Cc3ccc(-c4ccccc4)cc3)NC(=O)[C@H](Cc3ccc(C(=O)O)cc3)NC2=O)c1` [Example 2495] ({CH2CO}-[4Pal][Phe(4-COOH)]D[Phe(3-Me)][Phe(4-COOH)][Bip][Phe(4-COOH)][NMeA][dL][Dab][Cha][Val(3-OH)]EC[Dab][AEEA][AEEA][Aun]-OH; thioether N-14), the half-maximal inhibitory concentration (IC50) amounted to 108 nM.
Still for that read-out and setting: next, `CC(=O)NCCCC[C@@H]1NC(=O)[C@H](C(C)(C)O)NC(=O)[C@H](CC2CCCCC2)NC(=O)[C@H](CCN)NC(=O)[C@@H](CC(C)C)NC(=O)[C@H](C)N(C)C(=O)[C@H](CCC(=O)O)NC(=O)[C@H](Cc2ccc(-c3ccccc3)cc2)NC(=O)[C@H](Cc2ccc(C(=O)O)cc2)NC(=O)[C@H](Cc2cccc(C(F)(F)F)c2)NC(=O)[C@H](CC(=O)O)NC(=O)[C@H](Cc2ccc(OCC(=O)O)cc2)NC(=O)[C@H](Cc2ccc(OCC(=O)O)cc2)NC(=O)CSC[C@@H](C(=O)N[C@@H](CCN)C(=O)NCCOCCOCC(=O)NCCCCCCCCCCCCC(=O)O)NC1=O` [Example 2640] ({CH2CO}-Y(Carboxymethyl)Y(Carboxymethyl)D[Phe(3-CF3)][Phe(4-COOH)][Bip]E[NMeA][dL][Dab][Cha][Val(3-OH)]K(Ac)C[Dab][AEEA]-{NH(CH2)12COOH}; thioether N-14): 39.7 nM; `CC(=O)NCCCC[C@@H]1NC(=O)[C@H](C(C)(C)O)NC(=O)[C@H](CC2CCCCC2)NC(=O)[C@H](CCN)NC(=O)[C@@H](CC(C)C)NC(=O)[C@H](C)N(C)C(=O)[C@H](CCC(N)=O)NC(=O)[C@H](Cc2ccc(-c3ccccc3)cc2)NC(=O)[C@H](Cc2ccc(OCC(=O)O)cc2)NC(=O)[C@H](Cc2cccc(C(F)(F)F)c2)NC(=O)[C@H](CC(=O)O)NC(=O)[C@H](Cc2ccc(OCC(=O)O)cc2)NC(=O)[C@H](Cc2ccc(C(F)(F)F)cc2)NC(=O)CSC[C@@H](C(=O)N[C@@H](CCN)C(=O)NCCCCCCCCCCCCC(=O)O)NC1=O` [Example 2622] ({CH2CO}-[Phe(4-CF3)]Y(Carboxymethyl)D[Phe(3-CF3)]Y(Carboxymethyl)[Bip]Q[NMeA][dL][Dab][Cha][Val(3-OH)]K(Ac)C[Dab]-{NH(CH2)12COOH}; thioether N-14): 83.9 nM.

Values taken from patent publication US20260070945A1, “MACROCYCLIC IMMUNOMODULATORS” (Bristol-Myers Squibb Company, priority 2022, published 2026).
